Data taken from ChEMBL document CHEMBL1134858, “Identification of a novel 1'-[5-((3,5-dichlorobenzoyl)methylamino)-3-(3,4-dichlorophenyl)-4-(methoxyimino)pentyl]-2-oxo-(1,4'-bipiperidine) as a dual NK(1)/NK(2) antagonist” (Bioorg Med Chem Lett, 2002).
Where “and” joins values, the source holds several entries; their conditions need not be identical. Equal values may be shown once.

Tests used:
Substance-K receptor [1] = biological target: T1, Substance-K receptor (Cavia porcellus, UniProt Q64077); test: In vitro binding to Tachykinin receptor 2
T1 sequence (Q64077 whole entry): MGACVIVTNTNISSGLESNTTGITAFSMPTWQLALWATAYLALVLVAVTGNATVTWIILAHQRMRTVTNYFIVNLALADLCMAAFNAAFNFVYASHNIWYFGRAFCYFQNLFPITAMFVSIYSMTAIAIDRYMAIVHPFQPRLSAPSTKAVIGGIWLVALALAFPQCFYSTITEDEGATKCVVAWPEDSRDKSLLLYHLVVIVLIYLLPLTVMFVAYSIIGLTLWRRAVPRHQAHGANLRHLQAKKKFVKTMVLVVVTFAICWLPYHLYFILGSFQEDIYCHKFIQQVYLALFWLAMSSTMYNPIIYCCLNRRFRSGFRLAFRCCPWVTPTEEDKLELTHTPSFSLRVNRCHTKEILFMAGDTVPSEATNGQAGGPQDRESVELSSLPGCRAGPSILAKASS

Substance-P receptor [2] = biological target: T2, Substance-P receptor (Cavia porcellus, UniProt P30547); test: In vitro binding to Tachykinin receptor 1
T2 sequence (P30547 whole entry): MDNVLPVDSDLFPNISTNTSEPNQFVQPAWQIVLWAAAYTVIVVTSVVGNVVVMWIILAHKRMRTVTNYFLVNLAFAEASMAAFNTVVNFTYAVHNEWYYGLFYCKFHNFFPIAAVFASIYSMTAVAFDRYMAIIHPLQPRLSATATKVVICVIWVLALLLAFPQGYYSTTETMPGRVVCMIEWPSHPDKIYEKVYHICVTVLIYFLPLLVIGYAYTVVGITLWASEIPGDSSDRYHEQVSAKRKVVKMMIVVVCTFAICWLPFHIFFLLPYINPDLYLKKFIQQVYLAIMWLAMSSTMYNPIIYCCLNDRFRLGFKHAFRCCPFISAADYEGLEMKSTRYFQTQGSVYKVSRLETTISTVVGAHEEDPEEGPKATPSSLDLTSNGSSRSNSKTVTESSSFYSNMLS

Substance-K receptor [3] = biological target: T1, Substance-K receptor; test: […] is characterized by the compound ability to inhibit guinea pig bronchoconstriction; format: functional, Lung; details: read-out: pA2 (converted)
Substance-K receptor [4] = biological target: T1, Substance-K receptor; test: In vitro functional NK2 activity as inhibition of guinea pig bronchoconstriction; format: tissue-based, Lung; details: read-out: pA2 (converted)
Substance-P receptor [5] = biological target: T2, Substance-P receptor; test: In vitro functional NK1 activity as inhibition of guinea pig bronchoconstriction; format: tissue-based, Lung; details: read-out: pA2 (converted)
[6] = Bioavailability in dog; format: ADME, organism-based, Canis lupus familiaris; details: in vivo
[7] = AUC in dog at 0-24 hr by peroral administration at 3 mpk; format: ADME, organism-based, Canis lupus familiaris; parameters: dose 3 mpk, time < 24 hr, route oral; details: plasma, po, 3 mg/kg
Cavia porcellus [8] = test: In vivo NK1 activity in the guinea pig is characterized by the compounds ability to inhibit the increase in airway microvascular leakage (AML) produced by a SP challenge; format: functional
Cavia porcellus [9] = test: In vivo NK2 activity is characterized by the compounds ability to inhibit bronchoconstriction produced by a NKA challenge; format: functional; details: Lung
Cavia porcellus [10] = test: In vivo NK1 activity in the guinea pig is characterized by the compounds ability to inhibit the increase in airway microvascular leakage (AML) produced by a SP challenge at 10 mg/kg; format: functional
Cavia porcellus [11] = test: In vivo NK2 activity is characterized by the compounds ability to inhibit bronchoconstriction produced by a NKA challenge at 10 mg/kg; format: functional; details: Lung
Cavia porcellus [12] = test: In vivo NK2 activity is characterized by the compounds ability to inhibit bronchoconstriction produced by a NKA challenge at 10 mpk; format: functional; details: Lung

SMILES	Ki (Substance-K receptor [1])	Ki (Substance-P receptor [2])	Kb (Substance-K receptor [3]) [nM]	Kb (Substance-K receptor [4]) [nM]	Kb (Substance-P receptor [5]) [nM]	bioavailability [6] [%]	AUC at 24 h [7] [ng·h/mL]	ED50 (Cavia porcellus [8]) [mg/kg]	ED50 (Cavia porcellus [9]) [mg/kg]	inhibition in vivo at 10 mg/kg (Cavia porcellus [10]) [%]	inhibition in vivo at 10 mg/kg (Cavia porcellus [11]) [%]	inhibition in vivo at 10 mg/kg (Cavia porcellus [12]) [%]
CO/N=C(\CN(C)C(=O)c1cc(Cl)cc(Cl)c1)[C@@H](CCN1CCC(N2CCCC(CC(=O)N3CC(O)C3)C2=O)CC1)c1ccc(Cl)c(Cl)c1 (stereo not given in full)	0.6 nM	1.1 nM	501									
CO/N=C(\CN(C)C(=O)c1cc(Cl)cc(Cl)c1)[C@@H](CCN1CCC(N2CCCC(CC(=O)N3CCOCC3)C2=O)CC1)c1ccc(Cl)c(Cl)c1 (stereo not given in full)	0.8 nM	0.8 nM		126	6.31							
CO/N=C(\CN(C)C(=O)c1cc(Cl)cc(Cl)c1)C(CCN1CCC(N2CCCC(CC(=O)N3CC(O)C3)C2=O)CC1)c1ccc(Cl)c(Cl)c1 (stereo not given)	2 nM	3 nM		25.1								
CO/N=C(\CN(C)C(=O)c1cc(Cl)cc(Cl)c1)C(CCN1CCC(N2CCCC(CC(=O)N3CCOCC3)C2=O)CC1)c1ccc(Cl)c(Cl)c1 (stereo not given)	1 nM	1 nM		50.1								
CNC(=O)CC1CCCN(C2CCN(CC[C@H](/C(CN(C)C(=O)c3cc(Cl)cc(Cl)c3)=N/OC)c3ccc(Cl)c(Cl)c3)CC2)C1=O (stereo not given in full)	0.9 nM	1.5 nM		39.8	10							
CO/N=C(\CN(C)C(=O)c1cc(Cl)cc(Cl)c1)C(CCN1CCC(N2CCCC(CC(=O)N(C)C)C2=O)CC1)c1ccc(Cl)c(Cl)c1 (stereo not given)	1 nM	1 nM		63.1								
CNC(=O)CC1CCCN(C2CCN(CC[C@@H](/C(CN(C)C(=O)c3cc(Cl)cc(Cl)c3)=N/OC)c3ccc(Cl)c(Cl)c3)CC2)C1=O (stereo not given in full)	0.4 nM	1.3 nM		15.8	12.6	66	13600	1	3			
CO/N=C(\CN(C)C(=O)c1cc(Cl)cc(Cl)c1)[C@H](CCN1CCC(N2CCCC(CC(=O)N3CCOCC3)C2=O)CC1)c1ccc(Cl)c(Cl)c1 (stereo not given in full)	0.4 nM	0.7 nM		12.6	15.8					47	97	
CO/N=C(\CN(C)C(=O)c1cc(Cl)cc(Cl)c1)[C@H](CCN1CCC(N2CCCC(CC(=O)N3CC(O)C3)C2=O)CC1)c1ccc(Cl)c(Cl)c1 (stereo not given in full)	0.3 nM	0.6 nM		50.1	10					45		64
CO/N=C(\CN(C)C(=O)c1cc(Cl)cc(Cl)c1)[C@@H](CCN1CCC(N2CCCC(CC(=O)N(C)C)C2=O)CC1)c1ccc(Cl)c(Cl)c1 (stereo not given in full)	0.3 nM	0.8 nM		39.8	10							
CO/N=C(\CN(C)C(=O)c1cc(Cl)cc(Cl)c1)[C@H](CCN1CCC(N2CCCC(CC(=O)N(C)C)C2=O)CC1)c1ccc(Cl)c(Cl)c1 (stereo not given in full)	0.2 nM	0.8 nM		39.8	12.6		3460	3	3			

Continued, in another order:

Ki (Substance-K receptor [1])	Ki (Substance-P receptor [2])	Kb (Substance-K receptor [3]) [nM]	Kb (Substance-K receptor [4]) [nM]	Kb (Substance-P receptor [5]) [nM]	bioavailability [6] [%]	AUC at 24 h [7] [ng·h/mL]	SMILES	ED50 (Cavia porcellus [8]) [mg/kg]	ED50 (Cavia porcellus [9]) [mg/kg]	inhibition in vivo at 10 mg/kg (Cavia porcellus [10]) [%]	inhibition in vivo at 10 mg/kg (Cavia porcellus [11]) [%]	inhibition in vivo at 10 mg/kg (Cavia porcellus [12]) [%]
0.3 nM	0.4 nM		50.1	20			CO/N=C(\CN(C)C(=O)c1cc(Cl)cc(Cl)c1)[C@@H](CCN1CCC(N2CCCC(CC(N)=O)C2=O)CC1)c1ccc(Cl)c(Cl)c1 (stereo not given in full)					
0.3 nM	0.8 nM		10	10	37	9490	CO/N=C(\CN(C)C(=O)c1cc(Cl)cc(Cl)c1)[C@H](CCN1CCC(N2CCCC(CC(N)=O)C2=O)CC1)c1ccc(Cl)c(Cl)c1 (stereo not given in full)	1	4			
0.8 nM and 1 nM	1.2 nM and 1 nM		20	10	5	1220	CO/N=C(\CN(C)C(=O)c1cc(Cl)cc(Cl)c1)[C@H](CCN1CCC(N2CCCCC2=O)CC1)c1ccc(Cl)c(Cl)c1	1	3			
2 nM	2 nM		50.1				CNC(=O)CC1CCCN(C2CCN(CCC(/C(CN(C)C(=O)c3cc(Cl)cc(Cl)c3)=N/OC)c3ccc(Cl)c(Cl)c3)CC2)C1=O (stereo not given)					
2 nM	5 nM		50.1				CO/N=C(\CN(C)C(=O)c1cc(Cl)cc(Cl)c1)C(CCN1CCC(N2CCCCC2=O)CC1)c1ccc(Cl)c(Cl)c1 (stereo not given)					
3 nM	2 nM		100				CO/N=C(\CN(C)C(=O)c1cc(Cl)cc(Cl)c1)C(CCN1CCC(N2CCCC(CC(N)=O)C2=O)CC1)c1ccc(Cl)c(Cl)c1 (stereo not given)					
